Experimental data taken from US20030096893A1, “Oxidatively drying coating composition” (priority 2001, published 2003).
Where two headings read alike, the source gives them in different places.

Assay: Solubility of the ligand in Shellsol D40 at 23° C.
Assay type: physicochemical
Procedure: This condensation product was added to Shellsole® D40 at a temperature of 23° C. The solubility of the ligand was less than 10 g/l.
Comparative Example A was repeated using 2-hydroxy 5-methyl benzaldehyde instead of salicyl aldehyde. Again, the resulting ligand was added to Shellsol® D40 at a temperature of 23° C. The solubilty of the ligand was less than 10 g/l.
(§1) Comparative Example A was repeated using 2-hydroxy 3,5-di tert. butyl benzaldehyde instead of salicyl aldehyde. Obtained was a ligand according to formula I having two tert. butyl substitutions on the two aromatic groups A1 and A2. The solubility in Shellsol® D40 at a temperature of 23° C. was higher than 20 g/l.
as §1, with “repeated again, now” for “repeated”, “5-dodecyl” for “3,5-di tert. butyl”, “a dodecyl substitution” for “two tert. butyl substitutions”, “100” for “20”

[1] = Shellsol D40 (aromate-free organic solvent), 23° C.

Row | SMILES | solubility of the ligand in Shellsol D40 | solubility of the ligand in Shellsol D40 [1]
1 | Oc1ccccc1C=NC1CCCCC1N=Cc1ccccc1O (stereo not shown) [Comparative Example A, N,N′-bis(salicylidene) cyclohexylene diamine] | less than 10 g/l | –
2 | CCCCCCCCCCCCc1ccc(O)c(C=NC2CCCCC2N=Cc2cc(CCCCCCCCCCCC)ccc2O)c1 (stereo not shown) [Example 2] | – | higher than 100 g/l
3 | Cc1ccc(O)c(C=NC2CCCCC2N=Cc2cc(C)ccc2O)c1 (stereo not shown) [B] | – | less than 10 g/l
4 | CC(C)(C)c1cc(C=NC2CCCCC2N=Cc2cc(C(C)(C)C)cc(C(C)(C)C)c2O)c(O)c(C(C)(C)C)c1 (stereo not shown) [Example 1] | – | higher than 20 g/l
